Data as given in patent publication US9035044B2, “L-proline and citric acid co-crystals of (2S, 3R, 4R, 5S,6R)-2-(3-((5-(4-fluorophenyl)thiopen-2-yl)methyl)4-methylphenyl)-6-(hydroxymethyl)tetrahydro-2H-pyran-3,4,5-triol” (Janssen Pharmaceutica NV, priority 2011, dated 2015).

Columns and labels:
Type in all cases: physicochemical
[1] = Dynamic vapor sorption/desorption (DVS); settings: for hygroscopicity: 0% RH to 90% RH, 2 full cycles; for form conversion by pXRD after the DVS run: isolated at 0% RH
Experimental: DVS: Moisture sorption was characterized on a DVS-1 Instrument (Surface Measurement Systems, Allentown, Pa.). In each case, the sample was subject to a drying curve from ambient to 0% relative humidity (RH), followed by two cycles of sorption (from 0% RH to 90% RH) and desorption (from 90% RH to 0% RH) in 10% RH steps at 25° C. At each step the sample was allowed to equilibrate at a specific % RH and thus, stabilize in terms of weight gained or lost prior to the instrument moving to the next step within the method.
The crystalline L-proline co-crystal of the compound of formula (I-X) was further characterized using Dynamic Vapor Sorption (DVS), measuring from 0% RH to 90% RH (2 full cycles) at 25° C.
The crystalline citric acid co-crystal of the compound of formula (I-X) was further characterized using Dynamic Vapor Sorption (DVS), measuring from 0% RH to 90% RH (2 full cycles) at 25° C.

[2] = Chemical stability/degradation of stored samples by HPLC; settings: 1 week
Experimental: (§1) Samples of the crystalline L-proline co-crystal of the compound of formula (I-X) being tested for physical stability, sampled at 1 day, 1 week, 2 weeks and 4 weeks, were further tested for chemical stability/degradation. Crystalline L-proline co-crystal of the compound of formula (I-X) (˜10 mg) was diluted with a 50:50 water:acetonitrile solution (10 mL), and then further diluted 10 fold for HPLC measurements.
as §1, with “citric acid” for “L-proline”

[3] = Physical stability on storage in serum crimp vials; settings: up to 4 weeks; for physical stability: 5° C. sealed, 25° C./60% RH open, 40° C. sealed, 40° C./75% RH open, 60° C. sealed, 80° C. sealed
Experimental: (§2) The crystalline L-proline co-crystal of the compound of formula (I-X) was tested for physical stability by storing about 10 mg of the co-crystal in 10 mL serum crimp vials, under following conditions: (a) 5° C., sealed; (b) 25° C./60% RH, open; (c) 40° C., sealed; (d) 40° C./75% RH, open; (e) 60° C., sealed; and (f) 80° C., sealed; with stability data collected at 1 day, 1 week, 2 weeks and 4 weeks.
as §2, with “citric acid” for “L-proline”, “was similarly” for “was”, “in” for “in 10”

[4] = all six storage conditions, 1 day, 2 weeks and 4 weeks
[5] = 25° C./60% RH open and 60° C. sealed, 2 week and 4 week samples
[6] = 40° C./75% RH open and 80° C. sealed, 2 week and 4 week samples

| SMILES | hygroscopicity ([1]; 25° C.) | mass gain ([1]; between 40% RH and 90% RH, 25° C., lost on desorption with some hysteresis) [%] | form conversion by pXRD after the DVS run [1] | weight gain ([1]; until % RH reached 40%, 25° C.) | chemical stability (HPLC) [2, 4] | degradation peaks (HPLC) [2, 4] | physical stability [3] | visible color changes ([3]; all six storage conditions) | increase in mass ([1]; 0%-80% RH, 25° C., lost again on desorption) [%] | degradation peaks (HPLC) [2, 5] | peak purity (HPLC) [2, 5] [%] | degradation peaks (HPLC) [2, 6] | peak purity (HPLC) [2, 6] [%] | chemical stability (HPLC) ([2]; stored at 5° C. sealed and 40° C. sealed, 1 day, 2 weeks and 4 weeks) | degradation on a peak basis ([3]; stored at 25° C./60% RH, 40° C./75% RH, 60° C. or 80° C.) [%] |
| --- | --- | --- | --- | --- | --- | --- | --- | --- | --- | --- | --- | --- | --- | --- | --- |
| Cc1ccc([C@@H]2O[C@H](CO)[C@@H](O)[C@H](O)[C@H]2O)cc1Cc1ccc(-c2ccc(F)cc2)s1 [crystalline L-proline co-crystal of the compound of formula ] [(2S,3R,4R,5S,6R)-2-(3-((5-(4-fluorophenyl)thiophen-2-yl)methyl)-4-methylphenyl)-6-(hydroxymethyl)tetrahydro-2H-pyran-3,4,5-triol] | hygroscopic | 12 | no irreversible form conversion | no weight gain was observed | chemically stable | No degradation peaks were observed | physically stable | no visible color changes |  |  |  |  |  |  |  |
| Cc1ccc([C@@H]2O[C@H](CO)[C@@H](O)[C@H](O)[C@H]2O)cc1Cc1ccc(-c2ccc(F)cc2)s1 [crystalline citric acid co-crystal of the compound of formul] [(2S,3R,4R,5S,6R)-2-(3-((5-(4-fluorophenyl)thiophen-2-yl)methyl)-4-methylphenyl)-6-(hydroxymethyl)tetrahydro-2H-pyran-3,4,5-triol] | non-hygroscopic |  | no form conversion |  |  |  | physically stable |  | 0.5 | A small degradation peak was observed | > 99 | A few small degradation peaks were also observed | > 99 | chemically stable | < 0.3 |
